Reference: patent publication US20240100125A1 (ENYO PHARMA, priority 2021, published 2024)

How the values were obtained:
[1] = system: HBV infected primary human hepatocytes (PHH); assay: HBV replication in infected primary human hepatocytes (PHH), FXR agonist +/- IFN-alpha; type: cell-based; conditions: treated day 4 to 10 post-infection, harvested day 10, GW4064 1 or 10 uM, IFN-alpha 100 IU/mL
Protocol: FIG. 3. […] Freshly prepared and seeded PHH were infected with HBV at a multiplicity of infection of 250 GE/cell. From day 4 to 10 post-infection, cells were treated with […], +/−IFN-alpha at 100 IU/mL, or vehicle (NT), or IFN-alpha at 100 IU/mL alone. Cells and supernatants were harvested at day 10 for intracellular HBV RNA, viremia, and secreted antigens (HBsAg and HBeAg) quantification. Results are the mean+/−SD of one experiment performed with three biological replicates.
FIG. 4. […] Freshly prepared and seeded PHH were infected with HBV at a multiplicity of infection of 250 GE/cell. From day 4 to 10 post-infection, cells were treated with Vonafexor at 10 uM, or Nidufexor at 10 uM, or Tropifexor at 1 uM, or OCA at 10 uM, or GW4064 at 10 uM, +/−IFN-alpha (IFN) at 100 IU/mL, or vehicle, or IFN-alpha at 100 IU/mL alone. Supernatants were harvested at day 10 for secreted HBs antigen (HBsAg) quantification. Results are the mean+/−SEM of five experiments performed with three replicates.
Supernatants containing HBV particles were clarified (0.45 μm filter) and concentrated with 8% PEG 8000 (Sigma-Aldrich).
HBV DNA was quantified using the AmpliPrep/COBAS® TaqMan® HBV Test (Roche).
HBs and HBe antigens secreted in cells supernatant were quantified, after required dilutions, with Autobio kits (AutoBio, China) according to manufacturer's protocol.
Total RNA was prepared using NucleoSpin RNA Plus (Macherey-Nagel). After DNA digestion with TURBO DNase (Ambion), maximum 1000 ng RNA were reverse-transcribed using High-Capacity RNA-to-cDNA kit (Thermo Fisher Scientific). […] All assays were performed in triplicate.
HBs antigen secreted in cells supernatant were quantified, after required dilutions, with Autobio kits (AutoBio, China) according to manufacturer's protocol.
PHH are naturally susceptible to infection with HBV virions produced in vitro, leading to very high levels of replication of the virus.

[2] = system: HBV; assay: 4-week treatment course in HBV chronically infected patients: HBV replication markers (pgRNA, HBcrAg, HBsAg); type: in vivo, human
[3] = system: HBV; conditions: chronic hepatitis B patients; cited from earlier work
[4] = system: FXR; assay: FXR engagement markers (C4, FGF19) in HBV chronically infected patients; type: in vivo, human; conditions: all EYP001 doses; data not shown
[5] = Pruritus under EYP001 once a day versus twice a day in combined treatment with IFN-α; type: in vivo, human; conditions: EYP001 once a day rather than twice a day
Protocol: Therefore, in a particular aspect, the FXR agonist is administered once a day.

[6] = change from baseline at end of 4-week treatment (day 29), ETV open-label 0.5 mg/day
[7] = change from baseline at day 29, EYP001a 1 × 100 mg/day oral monotherapy
[8] = change from baseline at day 29, EYP001a 1 × 200 mg/day oral monotherapy
[9] = change from baseline at day 29, EYP001a 1 × 400 mg/day oral monotherapy
[10] = change from baseline at day 29, EYP001a 2 × 200 mg/day oral monotherapy

In the case of CC(C)c1onc(-c2c(Cl)cccc2Cl)c1COc1ccc(/C=C/c2cccc(C(=O)O)c2)c(Cl)c1 [GW4064, 3-[2-[2-Chloro-4-[[3-(2,6-dichlorophenyl)-5-(1-methylethyl)-4-isoxazolyl]methoxy]phenyl]ethenyl]benzoic acid], the HBeAg secretion [1] is reported as “reduce in a dose response manner”, the HBsAg secretion [1] is reported as “unable to significantly impact” and the “intracellular HBV RNA level” value [1] is reported as “reduce in a dose response manner”. The viremia [1] was “unable to significantly impact”.

In the case of C=C1[C@H](CO)[C@@H](O)C[C@@H]1n1cnc2c(=O)[nH]c(N)nc21 [ETV, entecavir, reference compound], the “HBVpgRNA Mean” value [2, 6] is reported as −0.3 Log10 Copies mL and the “HBcrAg Mean” value [2, 6] is reported as 0.03 Log10 IU mL.

For O=C(O)c1cc2c(Cl)c(N3CCN(S(=O)(=O)c4c(Cl)cccc4Cl)CC3)ccc2o1 [EYP001a], the “HBVpgRNA Mean” value [2, 7] was 0.5 Log10 Copies mL, the “HBcrAg Mean” value [2, 7] was −0.3 Log10 IU mL and the “HBVpgRNA Mean” value [2, 8] was 0.4 Log10 Copies mL. For the same compound, the “HBcrAg Mean” value [2, 8] was 0.2 Log10 IU mL, the “HBVpgRNA Mean” value [2, 9] was 0.2 Log10 Copies mL and the “HBcrAg Mean” value [2, 9] was 0.02 Log10 IU mL. For the same compound, the “HBVpgRNA Mean” value [2, 10] was −0.1 Log10 Copies mL, the “HBcrAg Mean” value [2, 10] was 1.2 Log10 IU mL and the “mean HBsAg decrease” value ([2]; end of treatment on day 29, 400 mg QD EYP001, p<0.05) was −0.1 log 10 IU/mL. The HBV viral load [3] was “reduces HBV viral load”, the C4 [4] was “decreases” and the FGF19 [4] was “increases”. For the same compound, the pruritus [5] was “fewer pruritus”.
